Data as given in US9345667B2, “Particles having hydrophobic material therein” (Australian Nuclear Science and Technology Organisation, priority 2005, dated 2016).
In brackets after ≈: the same amount, converted by molar mass. One block for each compound: values may come before it.

Assays:
[1] = Release of SB-35 dye from silica microparticles (UV/Vis); format: physicochemical; conditions: in cyclohexane, compared with dodecane
Description: 1. The encapsulation efficiency and release rate of the hydrophobic dye were determined by UV/Vis spectroscopy (Cary 50). The encapsulation efficiency was estimated by two methods. The first one was an indirect measurement, which consisted of measuring the U/Vis absorbance of the cyclohexane/Span 80 solutions after the silica particles had been filtered out. The encapsulation efficiency of the dye was calculated by subtracting the dye measured in the outer oil phase from the original dye concentration introduced into the system. A standard calibration curve was generated by adding accurate amounts of dye into the outer oil phase, with identical composition and concentration as the one used for the preparation of the corresponding samples. The second “direct” method consisted of measuring the release of SB-35 from the silica particles in a solvent such as ethanol, cyclohexane or dodecane, until the absorbance was stable. A standard calibration curve was produced by using the identical composition and concentration as the sample release media. (The surfactant content was estimated by the TGA/DTA result). The absorbance was measured at different intervals of time while stirring the product to produce the dye release curve.
The faster release rate observed in the case of the cyclohexane may be explained by the higher lipophilicity of the cyclohexane. […]

[2] = cited from earlier work
[3] = UV/Vis of retinol during release from retinol-doped silica particles; format: physicochemical; conditions: release in anhydrous ethanol

SMILES: CCCCNc1ccc(NCCCC)c2c1C(=O)c1ccccc1C2=O [SB-35, Solvent Blue 35]
- release rate of SB-35 from silica microparticles [1]: faster than in dodecane

SMILES: CN(C)C(=O)Nc1ccc(Cl)c(Cl)c1 [diuron, 3-(3,4-Dichlorophenyl)-1,1-dimethylurea]
- solubility in methanol [2]: 43 mg/mL (≈ 184 mM)

- retinol UV/Vis band during release [3]: disappeared
SMILES: CC1=C(/C=C/C(C)=C/C=C/C(C)=C/CO)C(C)(C)CCC1 [retinol]
